Our source for the Activity and Stability values is ChEMBL document CHEMBL1152876, “Synthesis and evaluation of novel phosphoramidate prodrugs of 2'-methyl cytidine as inhibitors of hepatitis C virus NS5B polymerase” (Bioorg Med Chem Lett, 2009).

SMILES strings stand for the structures.

One series has as its system Hepatitis C virus. The series is described as follows: Antiviral activity against HCV infected in human hepatoma cells by replicon assay. Type of series: functional, Hepacivirus hominis.
In series [1] the test system is Hepatocyte. The experiment in a line: Metabolic stability in rat hepatocyte assessed as nucleoside triphosphate at 10 uM level after 2 hrs. The settings on record: hepatocytes.
In series [2] the test system is Hepatocyte. The experiment in a line: Metabolic stability in human hepatocyte assessed as nucleoside triphosphate at 10 uM level after 2 hrs. The conditions noted are these: hepatocytes.
In another series the test system is Rattus norvegicus. The experiment in a line: Metabolic stability in rat liver assessed as nucleoside triphosphate formation at 30 umol/kg, po after 6 hrs. The conditions noted are these: in vivo.

`C[C@@]1(O)[C@H](O)[C@@H](COP(=O)(NCCOC(=O)C2CCCCCC2)Oc2ccccc2)O[C@H]1n1ccc(N)nc1=O` (some centres not stated) had an Activity in the series with Hepatitis C virus of 1160 nM.
`CC(C)[C@H](N)C(=O)O[C@@H]1[C@@H](CO)O[C@@H](n2ccc(N)nc2=O)[C@]1(C)O` [VALOPICITABINE] registered an Activity with Hepatitis C virus of 7600 nM. The Stability in the series with Hepatocyte [1] was < 14 µM; with Hepatocyte [2], 17 µM; in the series on Rattus norvegicus it was 0.2 nmol/g.
Compound `CC(C)C(=O)OCC(Cc1ccccc1)NP(=O)(OC[C@H]1O[C@@H](n2ccc(N)nc2=O)[C@](C)(O)[C@@H]1O)Oc1ccccc1` (some centres not stated) yielded an Activity in the series with Hepatitis C virus of 921 nM.
On the same count and under the same terms, the value for `CC(C)CC(COC(=O)C(C)(C)C)NP(=O)(OC[C@H]1O[C@@H](n2ccc(N)nc2=O)[C@](C)(O)[C@@H]1O)Oc1ccccc1` (some centres not stated) was 1840 nM.
Consider `CCCC(CCC)C(=O)OCCNP(=O)(OC[C@H]1O[C@@H](n2ccc(N)nc2=O)[C@](C)(O)[C@@H]1O)Oc1ccccc1` (stereo in doubt; 10b) [2-((((2R,3R,4R,5R)-5-(4-AMINO-2-OXOPYRIMIDIN-1(2H)-YL)-3,4-DIHYDROXY-4-METHYLTETRAHYDROFURAN-2-YL)METHOXY)(PHENOXY)PHOSPHORYLAMINO)ETHYL 2-PROPYLPENTANOATE (DIASTEREOMERIC  MIX)], for which the Activity with Hepatitis C virus is on record as 240 nM. Moreover, the Stability in the series on Rattus norvegicus was determined as 0.2 nmol/g.
In the series with Hepatitis C virus, `CC(CNP(=O)(OC[C@H]1O[C@@H](n2ccc(N)nc2=O)[C@](C)(O)[C@@H]1O)Oc1ccccc1)OC(=O)C(C)C` (some centres not stated) showed an Activity of 585 nM.
Take `CC(C)C(=O)O[C@H]1CCN(P(=O)(OC[C@H]2O[C@@H](n3ccc(N)nc3=O)[C@](C)(O)[C@@H]2O)Oc2ccccc2)C1` (some centres not stated): the Activity with Hepatitis C virus was <20000 nM.
On the same count and under the same terms, under `CCC(CC)C(=O)OCCNP(=O)(OC[C@H]1O[C@@H](n2ccc(N)nc2=O)[C@](C)(O)[C@@H]1O)Oc1ccccc1` (stereo in doubt; 9b) [DIASTEREOMERIC MIX] stands 625 nM; under `CC(C)(C)C(=O)OCCNP(=O)(OC[C@H]1O[C@@H](n2ccc(N)nc2=O)[C@](C)(O)[C@@H]1O)Oc1ccccc1` (some centres not stated), 226 nM.
In turn, `CCC(CC)C(=O)OCCNP(=O)(OC[C@H]1O[C@@H](n2ccc(N)nc2=O)[C@](C)(O)[C@@H]1O)Oc1ccccc1` (stereo in doubt; 9) [DIASTEREOMERIC MIX] yielded an Activity in the series on Hepatitis C virus of 2830 nM.
Same read-out and setting: the value for `CCCC(CCC)C(=O)OCCNP(=O)(OC[C@H]1O[C@@H](n2ccc(N)nc2=O)[C@](C)(O)[C@@H]1O)Oc1ccccc1` (stereo in doubt; 10a) [2-((((2R,3R,4R,5R)-5-(4-AMINO-2-OXOPYRIMIDIN-1(2H)-YL)-3,4-DIHYDROXY-4-METHYLTETRAHYDROFURAN-2-YL)METHOXY)(PHENOXY)PHOSPHORYLAMINO)ETHYL 2-PROPYLPENTANOATE (DIASTEREOMERIC  MIX)] was 450 nM.
In turn, `C[C@@]1(O)[C@H](O)[C@@H](COP(=O)(NCCOC(=O)c2ccccc2)Oc2ccccc2)O[C@H]1n1ccc(N)nc1=O` (some centres not stated) had an Activity in the series with Hepatitis C virus of 1960 nM. Besides, the Stability with Rattus norvegicus stood at 0.3 nmol/g.
